Measured values published in article PMC6072100, “Exploring the links between peptoid antibacterial activity and toxicity” (MedChemComm, 2017).
Square brackets hold non-standard residues; d marks the D form. Peptide text beside a SMILES is read from it. Gly(Nα-4-Cl-benzyl) = O=C(O)CNCc1ccc(Cl)cc1; Gly(N-(CH2)6NH2) = NCCCCCCNCC(=O)O; Gly(N-2-aminoethyl) = NCCNCC(=O)O; Nspe = C[C@H](NCC(=O)O)c1ccccc1; Nlys = NCCCCNCC(=O)O

Tests used:
[1] = Cytotoxicity assay with HepG2 (alamarBlue); assay type: cell-based, human; details: human, HepG2 cells
Experimental: (§1) The activity of our peptoid library was assessed against both bacterial and mammalian cells to gain a broader understanding of the factors that lead to effective and selective antimicrobial peptoids. We screened for broad-spectrum antibacterial activity against Gram-negative (Escherichia coli and Pseudomonas aeruginosa) and Gram-positive (Staphylococcus aureus and S. epidermidis) bacteria. The toxicity of the library was also assessed against two mammalian cell lines; HaCaT spontaneously transformed aneuploid keratinocytes were employed to model toxicity against human skin cells and HepG2, a cell line derived from a human liver carcinoma, were used as a study on polarised human hepatocytes. Detailed methods for these assays can be found in the ESI. ^‡ […]
(§2) Please note – ED50, the median effective dose, was defined as the dose that kills 50% of cells.
(§3) Cytotoxicity analyses were performed in 96-well plates (Costar, Fisher Scientific) using alamarBlue® (Invitrogen) for cell viability detection using a modified protocol as described previously. HepG2 or HaCaT cells were subcultured at 37 °C, 5% CO2 in DMEM high glucose supplemented with heat-inactivated foetal bovine sera (FBS, 10%; Biosera Ltd) and penicillin/streptomycin (P/S, 1%). Cells were counted using a Neubauer Improved Haemocytometer. HepG2 cells were seeded 1 day prior to treatment in 96 well plates at a concentration of 2 × 10^5 cells per mL in 100 μL of medium (2 × 10^4 cells per well). Then cells were pre-incubated with the compounds in triplicate in a dilution series in triplicate from 2–100 μM (5 mM stock solutions in DMSO diluted from 100 μM to 3 μM; untreated cells with DMSO as a negative control) in 50 μl of the media for 1 hour. Afterwards, 40 μL were removed from each well before the addition of 90 μL of the media, followed by incubation for 24 hours at 37 °C, 5% CO2. Then, 10 μL of alamarBlue® (Invitrogen) was added to each well before a 2 hour incubation prior to assessing cell viability using a fluorescent plate reader (Biotek; Ex 560 nm/Em 600 nm). All data were measured in triplicate on a minimum of two occasions to ensure a robust data set was collected. The ED50 values were calculated from the dose response results achieved from the serial dilutions.
Cytotoxicity assay with HepG2
Cytotoxicity analyses were performed in 96-well plates (Costar, Fisher Scientific) using alamarBlue® (Invitrogen) for cell viability detection using a modified protocol as previously described. The HepG2 cells were grown at 37 °C, 5% CO2 in DMEM high glucose supplemented with heat-inactivated foetal bovine sera (FBS, 10%; Biosera Ltd) and penicillin/streptomycin (P/S, 1%). Cells were counted using a Neubauer Improved Haemocytometer. HepG2 cells were seeded 1 day prior to treatment in 96 well plates at a concentration of 2x10^5 cells/mL in 100 µL of medium (2x10^4 cells/well). Then cells were pre-incubated with the compounds in triplicate (5 mM stock solutions in DMSO diluted from 100 µM to 3 µM; untreated cells with DMSO as a negative control) in 50 µl of the media for 1 hour.
Afterwards, 40 µL were removed from each well before the addition of 90 µL of the media, followed by incubation for 24 hours at 37 °C, 5% CO2. Then, 10 µL of alamarBlue® (Invitrogen) was added to each well before a 2 hour incubation prior to assessing cell viability using a fluorescent plate reader (Biotek; Ex 560 nm / Em 600 nm). All data was measured in triplicate on a minimum of two occasions to ensure a robust data set was collected. The ED50 values were calculated from the dose response results achieved from the serial dilutions. […]
5% CO2 in DMEM high glucose supplemented with heat-inactivated foetal bovine sera (FBS, 10%; Biosera Ltd) and penicillin/streptomycin (P/S, 1%). Cells were counted using a Neubauer […]
Empty wells were filled with 100 µL PBS. After 24 hours, cells were incubated with the compounds in a dilution series in triplicate from 2 – 100 µM (5 mM stock solutions in DMSO […]

[2] = Skin cell toxicity assay with HaCaT (alamarBlue); assay type: cell-based, human; details: human, HaCaT cells (keratinocytes)
Experimental: as §1, §2
as §3, with “dilutions. […]” for “dilutions.”
Cells were counted using a Neubauer Improved
Haemocytometer. […]
µM to 3 µM; untreated cells with DMSO as a negative control) in 50 µl of the media for 1 hour.
Afterwards, 40 µL were removed from each well before the addition of 90 µL of the media, followed by incubation for 24 hours at 37 °C, 5% CO2. Then, 10 µL of alamarBlue® (Invitrogen) was added to each well before a 2 hour incubation prior to assessing cell viability using a fluorescent plate reader (Biotek; Ex 560 nm / Em 600 nm). All data was measured in triplicate on a minimum of two occasions to ensure a robust data set was collected. The ED50 values were calculated from the dose response results achieved from the serial dilutions.
Skin Cell Toxicity assay with HaCaT […]
alamarBlue® (Invitrogen) for cell viability detection. HaCaT cells were subcultured at 37 °C, 5% CO2 in DMEM high glucose supplemented with heat-inactivated foetal bovine sera (FBS, 10%; Biosera Ltd) and penicillin/streptomycin (P/S, 1%). Cells were counted using a Neubauer Improved Haemocytometer. HaCaT cells were seeded in the plates 24 hours prior to treatment in 96 well plates at a concentration of 2x10^5 cells/mL in 100 µL of medium (2x10^4 cells/well).
Empty wells were filled with 100 µL PBS. After 24 hours, cells were incubated with the compounds in a dilution series in triplicate from 2 – 100 µM (5 mM stock solutions in DMSO diluted from 100 µM to 3 µM; Amphotericin B was used as a positive control and untreated cells with DMSO as a negative control) in 50 µL of the media for 1 hour. Afterwards, 40 µl was removed from each well, 90 µL of medium was added to each well and the cells incubated for 24 hours at 37 °C, 5% CO2. 10 µL of alamarBlue® (Invitrogen) was added to each well before […]

[3] = dose that kills 50% of cells, 2–100 μM, 1 h with compound then 24 h, alamarBlue, read-out: ED50 HepG2
[4] = dose that kills 50% of cells, 2–100 μM, 1 h with compound then 24 h, alamarBlue, read-out: ED50 HaCaT

| Compound | CC50 at 24 h ([1]; ED50 HepG2) | CC50 at 24 h ([2]; ED50 HaCaT) | CC50 at 24 h [1, 3] | CC50 at 24 h [2, 4] |
| --- | --- | --- | --- | --- |
| C[C@@H](c1ccccc1)N(CC(N)=O)C(=O)CN(C(=O)CN(CCCCCCN)C(=O)CN(C(=O)CN(C(=O)CN(CCCCCCN)C(=O)CN(C(=O)CN(C(=O)CN(CCCCCCN)C(=O)CN(C(=O)CN(C(=O)CNCCCCCCN)[C@@H](C)c1ccccc1)[C@@H](C)c1ccccc1)[C@@H](C)c1ccccc1)[C@@H](C)c1ccccc1)[C@@H](C)c1ccccc1)[C@@H](C)c1ccccc1)[C@@H](C)c1ccccc1 [Peptoid 10, (NahNspeNspe)4] (H-[Gly(N-(CH2)6NH2)][Nspe][Nspe][Gly(N-(CH2)6NH2)][Nspe][Nspe][Gly(N-(CH2)6NH2)][Nspe][Nspe][Gly(N-(CH2)6NH2)][Nspe][Nspe]-NH2; N-terminus assumed) | 41 µM | 23 µM | – | – |
| C[C@@H](c1ccccc1)N(CC(N)=O)C(=O)CN(C(=O)CN(CCN)C(=O)CN(C(=O)CN(C(=O)CN(CCN)C(=O)CN(C(=O)CN(C(=O)CN(CCN)C(=O)CN(C(=O)CN(C(=O)CNCCN)[C@@H](C)c1ccccc1)[C@@H](C)c1ccccc1)[C@@H](C)c1ccccc1)[C@@H](C)c1ccccc1)[C@@H](C)c1ccccc1)[C@@H](C)c1ccccc1)[C@@H](C)c1ccccc1 [Peptoid 16, (NaeNspeNspe)4] (H-[Gly(N-2-aminoethyl)][Nspe][Nspe][Gly(N-2-aminoethyl)][Nspe][Nspe][Gly(N-2-aminoethyl)][Nspe][Nspe][Gly(N-2-aminoethyl)][Nspe][Nspe]-NH2) | 41 µM | 26 µM | – | – |
| COc1ccc(CN(CC(N)=O)C(=O)CN(Cc2ccc(OC)cc2)C(=O)CN(CCCCN)C(=O)CN(Cc2ccc(OC)cc2)C(=O)CN(Cc2ccc(OC)cc2)C(=O)CN(CCCCN)C(=O)CN(Cc2ccc(OC)cc2)C(=O)CN(Cc2ccc(OC)cc2)C(=O)CN(CCCCN)C(=O)CN(Cc2ccc(OC)cc2)C(=O)CN(Cc2ccc(OC)cc2)C(=O)CNCCCCN)cc1 [Peptoid 19, (NLysNpmbNpmb)4] | 100 µM | 41 µM | – | – |
| NCCCCNCC(=O)N(CC(=O)N(CC(=O)N(CCCCN)CC(=O)N(CC(=O)N(CC(=O)N(CCCCN)CC(=O)N(CC(=O)N(CC(=O)N(CCCCN)CC(=O)N(CC(=O)N(CC(N)=O)Cc1ccc(Cl)cc1)Cc1ccc(Cl)cc1)Cc1ccc(Cl)cc1)Cc1ccc(Cl)cc1)Cc1ccc(Cl)cc1)Cc1ccc(Cl)cc1)Cc1ccc(Cl)cc1)Cc1ccc(Cl)cc1 [Peptoid 20, (NLysNpcbNpcb)4] (H-[Nlys][Gly(Nα-4-Cl-benzyl)][Gly(Nα-4-Cl-benzyl)][Nlys][Gly(Nα-4-Cl-benzyl)][Gly(Nα-4-Cl-benzyl)][Nlys][Gly(Nα-4-Cl-benzyl)][Gly(Nα-4-Cl-benzyl)][Nlys][Gly(Nα-4-Cl-benzyl)][Gly(Nα-4-Cl-benzyl)]-NH2) | 22 µM | 18 µM | – | – |
| NCCCCNCC(=O)N(CC(=O)N(CC(=O)N(CCCCN)CC(=O)N(CC(=O)N(CC(=O)N(CCCCN)CC(=O)N(CC(=O)N(CC(N)=O)Cc1ccc(Cl)cc1)Cc1ccc(Cl)cc1)Cc1ccc(Cl)cc1)Cc1ccc(Cl)cc1)Cc1ccc(Cl)cc1)Cc1ccc(Cl)cc1 [Peptoid 21, (NLysNpcbNpcb)3] (H-[Nlys][Gly(Nα-4-Cl-benzyl)][Gly(Nα-4-Cl-benzyl)][Nlys][Gly(Nα-4-Cl-benzyl)][Gly(Nα-4-Cl-benzyl)][Nlys][Gly(Nα-4-Cl-benzyl)][Gly(Nα-4-Cl-benzyl)]-NH2) | 23 µM | 22 µM | – | – |
| NCCCCNCC(=O)N(CC(=O)N(CC(=O)N(CCCCN)CC(=O)N(CC(=O)N(CC(=O)N(CCCCN)CC(=O)N(CC(=O)N(CC(=O)N(CCCCN)CC(=O)N(CC(=O)N(CC(N)=O)Cc1cccc(F)c1)Cc1cccc(F)c1)Cc1cccc(F)c1)Cc1cccc(F)c1)Cc1cccc(F)c1)Cc1cccc(F)c1)Cc1cccc(F)c1)Cc1cccc(F)c1 [Peptoid 24, (NLysNmfbNmfb)4] | 17 µM | 25 µM | – | – |
| NCCCCNCC(=O)N(CC(=O)N(CC(=O)N(CCCCN)CC(=O)N(CC(=O)N(CC(=O)N(CCCCN)CC(=O)N(CC(=O)N(CC(N)=O)Cc1cccc(F)c1)Cc1cccc(F)c1)Cc1cccc(F)c1)Cc1cccc(F)c1)Cc1cccc(F)c1)Cc1cccc(F)c1 [Peptoid 25, (NLysNmfbNmfb)3] | 43 µM | 64 µM | – | – |
| C[C@@H](c1ccccc1)N(CC(N)=O)C(=O)CN(Cc1ccc(F)cc1)C(=O)CN(CCCCN)C(=O)CN(C(=O)CN(Cc1ccc(F)cc1)C(=O)CN(CCCCN)C(=O)CN(C(=O)CN(Cc1ccc(F)cc1)C(=O)CN(CCCCN)C(=O)CN(C(=O)CN(Cc1ccc(F)cc1)C(=O)CNCCCCN)[C@@H](C)c1ccccc1)[C@@H](C)c1ccccc1)[C@@H](C)c1ccccc1 [Peptoid 26, (NLysNpfbNspe)4] | 26 µM | 20 µM | – | – |
| C[C@@H](c1ccccc1)N(CC(N)=O)C(=O)CN(Cc1ccc(F)cc1)C(=O)CN(CCCCN)C(=O)CN(C(=O)CN(Cc1ccc(F)cc1)C(=O)CN(CCCCN)C(=O)CN(C(=O)CN(Cc1ccc(F)cc1)C(=O)CNCCCCN)[C@@H](C)c1ccccc1)[C@@H](C)c1ccccc1 [Peptoid 27, (NLysNpfbNspe)3] | – | – | 36 µM | 52 µM |
| C[C@@H](c1ccccc1)N(CC(N)=O)C(=O)CN(C(=O)CN(CCCCN)C(=O)CN(Cc1ccc(F)cc1)C(=O)CN(Cc1ccc(F)cc1)C(=O)CN(CCCCN)C(=O)CN(C(=O)CN(C(=O)CNCCCCN)[C@@H](C)c1ccccc1)[C@@H](C)c1ccccc1)[C@@H](C)c1ccccc1 [Peptoid 29, (NLysNspeNspe)(NLysNpfbNpfb)(NLysNspeNspe)] | – | – | 43 µM | 65 µM |
